This test concerns the target T1, platelet P2Y1 receptor (Homo sapiens, UniProt P47900).
T1 construct: expressed in transfected cells
The test can be described thus: P2Y1 receptor binding assay ([β-33P]-2-thiomethyl ADP). The note with it: binding of 0.3 nM [β-33P]-2-thiomethyl ADP, hP2Y1 expressing 132N1 cell membrane, 25° C., 60 minutes. On the procedure:
Conducting P2Y, Receptor Binding Assay
[β−^33P]-2-thiomethyl ADP (2100 Ci/mmol) was purchased from PerkinElmer, Protease Inhibitors Complete, EDTA-free, was purchased from Roche, and ADP (Adenosine diphosphate), MRS2179, and 2-thiomethy ADP (2-Me-S-ADP) were purchased from Sigma Chemical Co.
Binding of 0.3 nM [β-^33P]-2-thiomethyl ADP to platelet P2Y1 receptor in 132N1 cell membrane was carried out in triplicate at 25° C. with 96 well plate (Corning, 3365). Nonspecific binding was defined as binding in the presence of 1 μM of 2-Me-S-ADP. One […] of dimethyl sulfoxide (DMSO) or 1 μL of DMSO (Sigma-Aldrich, 472301) containing a test compound diluted to final assay concentrations of 0.1 nM to 1 mM were placed into each well of a Corning 96-well plate. A volume of 60 μL of buffer: 50 mM Tris pH 7.5 (Sigma, T-2194), 1 mM EDTA (Gibco, 15575-038) and 100 mM NaCl (Gibco, 200740-011) containing 0.3 nM [β-^33P]-2-thiomethyl ADP 40 μL of hP2Y1 expressing 132N1 cell membrane prep was added to each well. After incubation on shaker for 60 minutes, The contents of the wells are filtered and washed 8 times with Tomtec Cell Harvester through UniFilter 96, GF/B plates (PerkinElmer, 6005177) Forty five microliters […] Scintillation cocktail (Ultima-Flo-M) was added into each well and plates counted on a Trilux Microbeta Counter.
• 1. Add 1 μL DMSO or compounds into the wells according to the protocol. • 2. Add 60 μL incubation buffer with [β-^33P]-2-thiomethyl ADP into each well. • 3. Add 40 μL hP2Y1 expressing 132N1 cell membrance prep. Incubate 60 minutes on top of the shaker (IKA Shutter MTS4). • 4. Filter and wash 8× with Tomtec Cell Harvester through UniFilter GF/B plates (PerkinElmer, 6005177). • 5. Add 45 μL scintillation cocktail into each well and plates counted on a Trilux Microbeta Counter.

This is an account of results in patent US20080269293A1, “PYRAZOLE DERIVATIVES AS ANTI-PLATELET AND ANTI-THROMBOTIC AGENTS” (Pfizer Inc., priority 2006, published 2008).

In general, IC50 refers to the concentration at which inhibition is half-maximal. Higher therefore signals a need for much substance.

T1 sequence (P47900 whole entry): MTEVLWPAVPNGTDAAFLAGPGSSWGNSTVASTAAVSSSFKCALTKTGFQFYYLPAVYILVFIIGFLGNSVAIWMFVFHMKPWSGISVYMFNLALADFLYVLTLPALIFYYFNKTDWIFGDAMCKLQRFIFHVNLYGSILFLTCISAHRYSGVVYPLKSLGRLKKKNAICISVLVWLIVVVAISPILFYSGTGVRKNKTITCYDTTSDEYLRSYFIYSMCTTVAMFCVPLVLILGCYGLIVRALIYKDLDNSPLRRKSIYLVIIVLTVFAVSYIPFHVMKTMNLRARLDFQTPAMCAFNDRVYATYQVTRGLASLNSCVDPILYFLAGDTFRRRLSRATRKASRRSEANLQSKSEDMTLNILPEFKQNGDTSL

Turning to `Cc1cc(Oc2ccccc2NC(=O)Nc2ccc(OC(F)(F)F)cc2)n(-c2ccccc2C(C)C)n1` [Example 113, 1-(2-(1-(2-isopropylphenyl)-3-methyl-1H-pyrazol-5-yloxy)phenyl)-3-(4-(trifluoromethoxy)phenyl)urea], the IC50 was found to be 57 nM. This counts as double-digit nanomolar.
In the case of `Cc1cc(Oc2ccccc2NC(=O)Nc2ccc(OC(F)(F)F)cc2)n(-c2ccccc2Br)n1` [Example 125, 1-(2-(1-(2-bromophenyl)-3-methyl-1H-pyrazol-5-yloxy)phenyl)-3-(4-(trifluoromethoxy)phenyl)urea], the concentration for half-maximal inhibition (IC50) is 182 nM. Compared with the last compound, the IC50 is about 3.2-fold higher.
As to `CCCc1ccccc1-n1nc(C)cc1Oc1ccccc1NC(=O)Nc1ccc(OC(F)(F)F)cc1` [Example 119, 1-(2-(1-(2-propylphenyl)-3-methyl-1H-pyrazol-5-yloxy)phenyl)-3-(4-(trifluoromethoxy)phenyl)urea], the half-maximal inhibitory concentration (IC50) was 88 nM.
Then `COC(C)c1ccc(NC(=O)Nc2ccccc2Oc2cc(C)nn2-c2ccccc2Cl)cc1` (centres unmarked) [Example 116, 1-(2-(1-(2-chlorophenyl)-3-methyl-1H-pyrazol-5-yloxy)phenyl)-3-(4-(1-methoxyethyl)phenyl)urea], with 1120 nM.
In turn, `Cc1ccc(-n2nc(C)cc2Oc2ccccc2NC(=O)Nc2ccc(OC(F)(F)F)cc2)cc1` [Example 10] yielded an IC50 of 188 nM.
In turn, `Cc1cc(Oc2ccccc2NC(=O)Nc2ccc(C(C)(C)C)cc2)n(-c2ccccc2)n1` [Example 12] showed an IC50 of 207 nM. The IC50 values of the last two compounds are within 1.5-fold of each other.
The compound `Cc1cc(Oc2ccncc2NC(=O)Nc2ccc(OC(F)(F)F)cc2)n(-c2ccccc2)n1` [Example 23, 1-[4-(5-Methyl-2-phenyl-2H-pyrazol-3-yloxy)-pyridin-3-yl]-3-(4-trifluoromethoxy-phenyl)-urea] registered an IC50 of 8990 nM.
Then `Cc1cc(Oc2ccccc2NC(=O)Nc2ccc(OC(F)(F)F)cc2)n(-c2cc(Cl)ccc2Cl)n1` [Example 98, 1-(2-(1-(2,5-dichlorophenyl)-3-methyl-1H-pyrazol-5-yloxy)phenyl)-3-(4-(trifluoromethoxy)phenyl)urea], with 68 nM; and `O=C(Nc1ccc(OC(F)(F)F)cc1)Nc1ccccc1Oc1ccnn1-c1ccccc1` [Example 24, 1-[2-(2-Phenyl-2H-pyrazol-3-yloxy)-phenyl]-3-(4-trifluoromethoxy-phenyl)-urea], with 306 nM; and `Cc1cc(Oc2ccccc2NC(=O)Nc2ccc(OC(F)(F)F)cc2)n(-c2ccccc2C(F)(F)F)n1` [Example 8], with 128 nM.
For `CCOc1ccc(NC(=O)Nc2ccccc2Oc2cc(C)nn2-c2ccccc2)cc1` [Example 41] the value was 5060 nM; for `Cc1cc(Oc2ccccc2NC(=O)Nc2c(C)cccc2C(C)(C)C)n(-c2ccccc2)n1` [Example 77], more than 10000 nM; for `Cc1cc(Oc2ncccc2NC(=O)Nc2ccc(C(C)(C)C)cc2)n(-c2ccccc2)n1` [Example 21, 1-(4-tert-Butyl-phenyl)-3-[2-(5-methyl-2-phenyl-2H-pyrazol-3-yloxy)-pyridin-3-yl]-urea], 272 nM.
On to `Cc1cc(Oc2ccccc2NC(=O)Nc2ccc(OC(F)(F)F)cc2)n(-c2ccc(Cl)cc2Cl)n1` [Example 20], for which the IC50 was found to be 150 nM.
Then `Cc1cc(Oc2ccccc2NC(=O)Nc2cc(F)ccc2F)n(-c2ccccc2)n1` [Example 34], with 800 nM; and `CCc1ccccc1-n1nc(C)cc1Oc1ccccc1NC(=O)Nc1ccccc1` [Example 95, 1-(2-(1-(2-ethylphenyl)-3-methyl-1H-pyrazol-5-yloxy)phenyl)-3-phenylurea], with 689 nM.
Then `Cc1cc(Oc2ccccc2NC(=O)Nc2ccccc2Br)n(-c2ccccc2)n1` [Example 82], with more than 10000 nM; and `CCc1ccccc1-n1nc(C)cc1Oc1ccccc1NC(=O)Nc1ccc(OC(C)C)cc1` [Example 109, 1-(2-(1-(2-ethylphenyl)-3-methyl-1H-pyrazol-5-yloxy)phenyl)-3-(4-isopropoxyphenyl)urea], with 198 nM.
For `Cc1cc(Oc2ccccc2NC(=O)Nc2ccc(F)c(F)c2F)n(-c2ccccc2)n1` [Example 45] the value was 8850 nM; for `Cc1cc(Oc2ccccc2NC(=O)Nc2ccc(C(C)(C)CO)cc2)n(-c2ccccc2Cl)n1` [Example 85, 1-{2-[2-(2-Chloro-phenyl)-5-methyl-2H-pyrazol-3-yloxy]-phenyl}-3-[4-(2-hydroxy-1,1-dimethyl-ethyl)-phenyl]-urea], more than 10000 nM; for `Cc1cc(Oc2ccccc2NC(=O)Nc2ccc(-n3ccnc3)cc2)n(-c2ccccc2Cl)n1` [Example 100, 1-(4-(1H-imidazol-1-yl)phenyl)-3-(2-(1-(2-chlorophenyl)-3-methyl-1H-pyrazol-5-yloxy)phenyl)urea], more than 10000 nM.
Turning to `Cc1cc(Oc2ccccc2NC(=O)Nc2ccc(C3CCNCC3)cc2)n(-c2ccccc2Cl)n1` [Example 120, 1-(2-(1-(2-chlorophenyl)-3-methyl-1H-pyrazol-5-yloxy)phenyl)-3-(4-(piperidin-4-yl)phenyl)urea], the concentration for half-maximal inhibition (IC50) is more than 10000 nM.
Then `CCc1ccccc1-n1nc(C)cc1Oc1ccccc1NC(=O)Nc1ccc(OC)cc1` [Example 103, 1-(2-(1-(2-ethylphenyl)-3-methyl-1H-pyrazol-5-yloxy)phenyl)-3-(4-methoxyphenyl)urea], with 564 nM; and `COc1ccccc1-n1nc(C)cc1Oc1ccccc1NC(=O)Nc1ccc(OC(F)(F)F)cc1` [Example 11], with 991 nM; and `Cc1cc(Oc2ccccc2NC(=O)Nc2c(Cl)cccc2Cl)n(-c2ccccc2)n1` [Example 61], with more than 10000 nM.
`CCc1ccccc1-n1nc(C)cc1Oc1ccccc1NC(=O)Nc1ccc(F)cc1F` [Example 106, 1-(2,4-difluorophenyl)-3-(2-(1-(2-ethylphenyl)-3-methyl-1H-pyrazol-5-yloxy)phenyl)urea]: the IC50 is 287 nM. That is a sub-micromolar value.
Then `CCOC(=O)C(C)(C)c1ccc(NC(=O)Nc2ccccc2Oc2cc(C)nn2-c2ccccc2Cl)cc1` [Example 83, 2-[4-(3-{2-[2-(2-Chloro-phenyl)-5-methyl-2H-pyrazol-3-yloxy]-phenyl}-ureido)-phenyl]-2-methyl-propionic acid ethyl ester], with 3390 nM; and `CCc1ccccc1-n1nc(C)cc1Oc1ccccc1NC(=O)Nc1ccc(OC(F)(F)F)cc1` [Example 3], with 48 nM.
The compound `CCc1ccccc1-n1nc(C)cc1Oc1ccccc1NC(=O)Nc1ccc(C(C)C)cc1` [Example 104, 1-(2-(1-(2-ethylphenyl)-3-methyl-1H-pyrazol-5-yloxy)phenyl)-3-(4-isopropylphenyl)urea] gave a 50% inhibitory concentration (IC50) of 22 nM.
Turning to `Cc1cc(C)cc(NC(=O)Nc2ccccc2Oc2cc(C)nn2-c2ccccc2)c1` [Example 43], the IC50 worked out at 7560 nM.
For `Cc1cc(Oc2ccccc2NC(=O)Nc2ccc(-c3ccccc3)cc2)n(-c2ccccc2Cl)n1` [Example 96, 1-(4-(phenyl)-phenyl)-3-(2-(1-(2-chlorophenyl)-3-methyl-1H-pyrazol-5-yloxy)phenyl)urea] the value was 176 nM; for `Cc1cc(Oc2ccccc2NC(=O)Nc2ccc(C(C)(C)C(=O)O)cc2)n(-c2ccccc2Cl)n1` [Example 84, 2-[4-(3-{2-[2-(2-Chloro-phenyl)-5-methyl-2H-pyrazol-3-yloxy]-phenyl}-ureido)-phenyl]-2-methyl-propionic acid], more than 10000 nM.
